The target of this assay is HCV NS5B polymerase (Hepatitis C virus genotype 1a, UniProt P27958). Kind of assay: HCV polymerase inhibition assay (FlashPlate, [α-33P]GTP incorporation). Format: biochemical. The settings on record: 20 nM enzyme, 0.6 μM GTP, 250 nM 5′biotinylated oligo (rG13)/poly rC, 75 min at 28° C. Here is the method: Compounds were tested for HCV polymerase inhibition. Assays were performed in a 96-well streptavidin-coated FlashPlate using 20 nM enzyme, 0.5 μCi of [α-^33P]GTP, 0.6 μM GTP, and 250 nM 5′biotinylated oligo (rG13)/poly rC in 20 mM Tris-HCl, pH 7.5, 5 mM MgCl2, 5 mM dithiothreitol, 0.1 g/L bovine serum albumin, and 100 U/mL RNAse inhibitor. The reaction was stopped by aspiration after 75 min at 28° C. and the plate was washed several times. After washing and drying the plate, incorporated radioactivity was counted using a Microbeta scintillation counter. IC50 values were calculated relative to the uninhibited control and inhibition data were fitted to a 4-parameter IC50 equation. For very potent inhibitors, the data were fitted to a tight binding quadratic equation to obtain IC50 values.
HCV NS5B polymerase, sequence (P27958 2421-3011): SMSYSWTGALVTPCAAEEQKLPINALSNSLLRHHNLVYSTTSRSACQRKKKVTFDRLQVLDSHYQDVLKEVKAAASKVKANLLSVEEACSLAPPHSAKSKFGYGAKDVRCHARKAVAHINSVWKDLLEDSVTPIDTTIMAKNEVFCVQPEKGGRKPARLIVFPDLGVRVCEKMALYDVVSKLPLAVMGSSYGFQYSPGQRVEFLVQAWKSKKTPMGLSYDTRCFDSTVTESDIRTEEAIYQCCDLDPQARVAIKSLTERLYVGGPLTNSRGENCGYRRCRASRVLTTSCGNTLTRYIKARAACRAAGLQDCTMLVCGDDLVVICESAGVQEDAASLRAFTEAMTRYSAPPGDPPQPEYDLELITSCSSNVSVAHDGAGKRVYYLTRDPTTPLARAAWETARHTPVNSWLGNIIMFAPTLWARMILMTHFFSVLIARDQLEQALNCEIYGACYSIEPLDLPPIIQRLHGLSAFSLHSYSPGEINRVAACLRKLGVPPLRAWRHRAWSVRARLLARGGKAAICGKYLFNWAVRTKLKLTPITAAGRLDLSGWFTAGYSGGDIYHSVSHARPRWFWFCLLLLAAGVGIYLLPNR
As a reminder, the IC50 is the midpoint of a concentration-inhibition curve. Read a high IC50 as a need for much substance. Take `CC(C)CCn1nc(-c2cccs2)c(O)c(C2=CS(=O)(=O)c3cc(NS(C)(=O)=O)ccc3N2)c1=O` [Compound 29, N-{3-[5-Hydroxy-2-(3-methyl-butyl)-3-oxo-6-thiophen-2-yl-2,3-dihydro-pyridazin-4-yl]-1,1-dioxo-1,4-dihydro-1λ^6-benzo[1,4]thiazin-7-yl}-methanesulfonamide]: the IC50 is under 1000 nM.

Consider `CCCCc1nn(CCC(C)C)c(=O)c(C2=CS(=O)(=O)c3ccccc3N2)c1O` [Compound 25, 6-Butyl-4-(1,1-dioxo-1,4-dihydro-1λ^6-benzo[1,4]thiazin-3-yl)-5-hydroxy-2-(3-methyl-butyl)-2H-pyridazin-3-one], for which the IC50 is over 1000 nM.

In the case of `CC(C)CCn1nc(-c2cccs2)c(O)c(C2=CS(=O)(=O)c3ccccc3N2)c1=O` [Compound 16, 4-(1,1-Dioxo-1,4-dihydro-1λ^6-benzo[1,4]thiazin-3-yl)-5-hydroxy-2-(3-methyl-butyl)-6-thiophen-2-yl-2H-pyridazin-3-one], the half-maximal inhibitory concentration (IC50) is over 1000 nM.

Source of the values: US20080090814A1, “PYRIDAZINONE COMPOUNDS” (Anadys Pharmaceuticals, Inc., priority 2006, published 2008).
